The values that follow come from US11505548B2, “Heterocyclic compounds and their use for treatment of helminthic infections and diseases” (Celgene Corporation, priority 2019, dated 2022).

This experiment concerns microfilariae of Dirofilaria immitis. Description: Dirofilaria immitis, Microfilaria (DiMF) Assay. It counts as cell-based. Particulars: in vitro, stage (microfilaria or L4) not given, class A/B/C, read-out: D. immitis activity level (IC50 or MED). The protocol:
Heartworm Screen Dirofilaria immitis (D. immitis)
Dirofilaria immitis, Microfilaria (DiMF) Assay.
Compounds were dissolved and serially diluted in DMSO. Aliquots were spotted to the empty wells of assay plates. Media and microfilariae of Dirofilaria immitis were added to each well to dilute the test compounds to the desired concentrations. Assay plates were incubated for approximately 72 hours, and the larvae in each well were observed microscopically for drug effect. Microfilariae in each well were assessed subjectively for survival or paralysis, and results were reported as Minimum Effective Dose (MED).
Active and selective (DiL4 vs. DiMF potency) example compounds were subsequently evaluated in heartworm positive dog studies to correlate the in vitro selectivity profile with in vivo effects on circulating microfilariae.

A value given as a limit tells only on which side of the number the result lay.

A word on the IC50: it is the concentration at which inhibition is half-maximal. Regarding “2-(3-(5-isoprop- oxypyridin-2- yl)-1,2,4- thiadiazol-5- ylamino)-N,N- dimethyl-5- (trifluoromethyl) nicotinamide [Compound 250]”, the IC50 is under 200 nM.
